Experimental data as given in patent publication US12121566B2, “Methods for treating gout” (Horizon Therapeutics USA, Inc., priority 2019, dated 2024).

Legend:
[1] = tested on: patients with chronic gout refractory to conventional therapy; test: Two replicate randomized, double-blind, placebo controlled six-month studies (Trial 1 and Trial 2): urate lowering and tophi; assay type: in vivo, human
Procedure: The efficacy of KXX was studied in adult patients with chronic gout refractory to conventional therapy in two replicate, multicenter, randomized, double-blind, placebo controlled studies of six months duration: Trial 1 and Trial 2. Patients were randomized to receive KXX 8 mg every 2 weeks or every 4 weeks or placebo in a 2:2:1 ratio.
Studies were stratified for the presence of tophi. Seventy-one percent (71%) of patients had baseline tophi. All patients were prophylaxed with an oral antihistamine, intravenous corticosteroid and acetaminophen. Patients also received prophylaxis for gout flares with non-steroidal anti-inflammatory drugs (NSAIDs) or colchicine, or both, beginning at least one week before KXX treatment unless medically contraindicated or not tolerated. Patients who completed the randomized clinical trials were eligible to enroll in a 2-year open label extension study.
To assess the efficacy of KXX in lowering uric acid, the primary endpoint in both trials was the proportion of patients who achieved plasma uric acid (PUA) less than 6 mg/dL for at least 80% of the time during Month 3 and Month 6.
The effect of treatment on tophi was a secondary efficacy endpoint and was assessed using standardized digital photography, image analysis, and a Central Reader blinded to treatment assignment. Approximately 70% of patients had tophi at baseline. A pooled analysis of data from Trial 1 and Trial 2 was performed as pre-specified in the protocols. At Month 6, the percentage of patients who achieved a complete response (defined as 100% resolution of at least one target tophus, no new tophi appear and no single tophus showing progression) was 45%, 26%, and 8%, with KXX 8 mg every 2 weeks, KXX 8 mg every 4 weeks, and placebo, respectively. The difference between KXX and placebo was statistically significant for the every-2-week dosing regimen, but not for the every-4-week dosing regimen.

dogs = test: Animal toxicology in dogs (IV); assay type: in vivo, dog; settings: for vacuoles in the spleen, adrenal glands, and heart after recovery: 1-year recovery period; for vacuoles in the liver, duodenum, and jejunum after recovery: 3-month recovery period
Procedure: Organs with cytoplasmic vacuoles included the spleen, adrenal gland, liver, heart, duodenum, and jejunum. Vacuoles in the spleen, adrenal glands, and heart persisted after a 1-year recovery period at pegloticase dose (≥1.5 mg/kg in dogs) approximately 5 times the MRHD, but were absent at a dose similar to the MRHD. Vacuoles in the liver, duodenum, and jejunum persisted after a 3-month recovery period at a pegloticase dose (10 mg/kg in dogs) approximately 30 times the MRHD, but were absent at doses less than or equal to 1.5 mg/kg approximately 5 times and similar to the MRHD. The edema and histiocyte infiltration in the aortic outflow tract was absent after recovery periods of 6 and 12 months, respectively.
Vacuoles in the spleen, liver, duodenum, and jejunum were within macrophages and most likely represented phagocytic removal of pegloticase from the circulation. […] In the aortic outflow tract of the heart, vacuoles were in the cytoplasm of endothelial cells in the intimal lining of the aorta. In the adrenal gland, vacuoles were located within cortical cells in the Zona reticularis and Zona fasciculata. The clinical significance of these findings and the functional consequences are unknown.

[2] = tested on: patients with refractory chronic gout; settings: Phase 2 program; cited from earlier work
[3] = post-hoc, if KXX stopped after 2 consecutive uric acid levels greater than 6 mg/dL
[4] = post-hoc, if KXX stopped when uric acid rose to greater than 6 mg/dL on a single occasion

## pegloticase
[1]; KXX 8 mg every 2 weeks
  efficacy in patients with creatinine clearance less than or equal to 62.5 mL/min: No overall differences
[1]; Month 6, pooled Trial 1 and Trial 2, KXX 8 mg every 2 weeks
  percentage of patients who achieved a complete response of tophi: 45%
[1]; Month 6, pooled Trial 1 and Trial 2, KXX 8 mg every 4 weeks
  percentage of patients who achieved a complete response of tophi: 26%
[1]; Trial 1, 8 mg every 2 weeks, N 43
  Number (%) of Subjects Who Met Response Criteria (plasma uric acid <6 mg/dL for at least 80% of the time during Months 3 and 6): 20 (47%) Number (%)
[1]; Trial 1, 8 mg every 4 weeks, N 41
  Number (%) of Subjects Who Met Response Criteria (plasma uric acid <6 mg/dL for at least 80% of the time during Months 3 and 6): 8 (20%) Number (%)
[1]; Trial 2, 8 mg every 2 weeks, N 42
  Number (%) of Subjects Who Met Response Criteria (plasma uric acid <6 mg/dL for at least 80% of the time during Months 3 and 6): 16 (38%) Number (%)
[1]; Trial 2, 8 mg every 4 weeks, N 43
  Number (%) of Subjects Who Met Response Criteria (plasma uric acid <6 mg/dL for at least 80% of the time during Months 3 and 6): 21 (49%) Number (%)
[1]; approximately 24 hours following the first dose, KXX 8 mg every 2 weeks group
  mean plasma uric acid level: 0.7 mg/dL
[1]; [3]
  efficacy outcome: little change
  incidence of infusion reactions: half
[1]; [4]
  reduction of success rates for the primary efficacy endpoint: approximately 20%
  reduction of the incidence of infusion reactions: approximately 67%
dogs; dose similar to the MRHD
  vacuoles in the spleen, adrenal glands, and heart after recovery: absent
dogs; ≥1.5 mg/kg, approximately 5 times the MRHD
  vacuoles in the spleen, adrenal glands, and heart after recovery: persisted
dogs; 10 mg/kg, approximately 30 times the MRHD
  vacuoles in the liver, duodenum, and jejunum after recovery: persisted
dogs; doses less than or equal to 1.5 mg/kg
  vacuoles in the liver, duodenum, and jejunum after recovery: absent
dogs; IV doses of ≥0.4 mg/kg, similar to and higher than the MRHD
  organ findings: caused cytoplasmic vacuoles in multiple organs, and edema and histiocyte infiltration in the aortic outflow tract
dogs; recovery periods of 6 and 12 months, respectively
  edema and histiocyte infiltration in the aortic outflow tract after recovery: absent
[2]
  dose-response plateau dose: 12 mg
  minimally effective dose: 4 mg
  safe and optimally effective dose: 8 mg
